Holding throughout (type): cell-based
For assay [1], the system named is Pseudomonas aeruginosa ATCC 27853. Put plainly: Antibacterial activity, agar dilution MIC, Pseudomonas aeruginosa ATCC 27853. The settings on record: ATCC27853, 18 hours at 35° C. The method, then: (§1) The compounds of the invention are tested for their antibacterial activity. The test is carried out as follows:
(§2) The organisms used in the test comprise the following:
(§3) Staphylococcus aureus (penicillin-sensitive and resistant), Pseudomonas aeruginosa, Escherichia coli, […] pneumoniae, Bordetella bronchiseptica, Proteus vulgaris, P. mirabilis, Acinetobacter calcoaceticus.
(§4) Test organisms may be added or deleted in order to reflect current clinical patterns of antibiotic susceptibility or shifts in pathogenic potential.
(§5) Organisms are normally grown for 18 hours in Brain Heart Infusion at 35° C. Cultures are adjusted with saline to MacFarland No. 1.5 standard prior to use.
(§6) Stock concentrations (e.g. 2,5000 μg or units per ml) are prepared in a suitable vehicle. Two-fold dilutions are made. One ml quantities of each dilution are incorporated in 9 ml of the appropriate agar (e.g. Seed) in sterile Petri plates. The hardened surface is inoculated with test organisms by use of a Steers replicating device. The plates are incubated (e.g. 18 hours at 35° C.) and activity is determined.
(In agar dilution, organisms are placed on agar that contains the substance at set levels.)

The subject of assay [2] is Staphylococcus aureus ATCC 29213. Put plainly: Antibacterial activity, agar dilution MIC, Staphylococcus aureus ATCC 29213. The following applies: ATCC29213, 18 hours at 35° C. The procedure: as §1, §2, §3, §4, §5, §6
Assay [3] concerns Klebsiella pneunomiae KL-1. Put plainly: Antibacterial activity, agar dilution MIC, Klebsiella pneunomiae KL-1. The settings on record: KL1, 18 hours at 35° C. The procedure:
as §1, §2, §3, §4, §5, §6

The test system of assay [4] is Enterobacter cloacae ATCC 13047. Put plainly: Antibacterial activity, agar dilution MIC, Enterobacter cloacae ATCC 13047. The following applies: ATCC13047, 18 hours at 35° C. The procedure:
as §1, §2, §3, §4, §5, §6

In assay [5] the test system is Proteus vulgaris A 84354 1. The assay is described as follows: Antibacterial activity, agar dilution MIC, Proteus vulgaris A 84354 1. The settings on record: A843541, 18 hours at 35° C. The procedure:
as §1, §2, §3, §4, §5, §6

In assay [6] the test system is Streptococcus faecalis ATCC 29212. The assay is described as follows: Antibacterial activity, agar dilution MIC, Streptococcus faecalis ATCC 29212. The settings on record: Enterococcus faecalis, ATCC29212, 18 hours at 35° C. The method, then:
as §1, §2, §3, §4, §5, §6

In assay [7] the test system is Escherichia coli ATCC 25922. The assay is described as follows: Antibacterial activity, agar dilution MIC, Escherichia coli ATCC 25922. The settings on record: ATCC25922, 18 hours at 35° C. The procedure: as §1, §2, §3, §4, §5, §6
Assay [8] has as its system Serratia marcescens ATCC 13880. The assay is described as follows: Antibacterial activity, agar dilution MIC, Serratia marcescens ATCC 13880. The following applies: ATCC13880, 18 hours at 35° C. The procedure:
as §1, §2, §3, §4, §5, §6

The record followed here is US4728734A, “C-3'thioiminosulfonyl cephalosporin analogs” (American Home Products Corporation, priority 1985, dated 1988).

As usually defined, the MIC is the least concentration at which growth counts as inhibited. The low end stands for greater potency, the high end for weaker potency.

SMILES strings stand for the structures. In brackets after ≈: the same amount, converted by molar mass. Structures can show the parent of a compound that is named as a salt.

Turning to `CO/N=C(\C(=O)N[C@@H]1C(=O)N2C(C(=O)OC(C)(C)C)=C(CSC3=NS(=O)(=O)c4cscc43)CS[C@H]12)c1csc(N)n1` [Example 1 B., (6R,7R)-7[[(2-Amino-4-thiazolyl)(methoxyimino)acetyl]amino]-8-oxo-3-[(thieno[3,4-d]isothiazol-3-ylthio)methyl]-5-thia-1-azabicyclo[4.2.0]oct-2-ene-2-carboxylic acid 1,1-dimethylethyl ester S^3,S^3-dioxide], the MIC in assay [1] was greater than 256 µg/mL; in assay [2], 128 µg/mL (≈ 195 µM); in assay [3], 2 µg/mL (≈ 3.04 µM); in assay [4] it was greater than 256 µg/mL; in assay [5], 2 µg/mL (≈ 3.04 µM); in assay [6], greater than 256 µg/mL. Also, the MIC stood at 8 µg/mL (≈ 12.2 µM) in assay [7] and 32 µg/mL (≈ 48.7 µM) in assay [8].
As to `CO/N=C(\C(=O)N[C@@H]1C(=O)N2C(C(=O)O)=C(CSC3=NS(=O)(=O)c4cscc43)CS[C@H]12)c1csc(N)n1` [Example 1 C., (6R,7R)-7-[[(2-Amino-4-thiazolyl)(methoxyimino)acetyl]amino]-8-oxo-3-[(thieno-[3,4-d]isothiazol-3-ylthio)methyl]-5-thia-1-azabicyclo[4.2.0]oct-2-ene-2-carboxylic acid S^3,S^3-dioxide, trifluoroacetate salt], the MIC in assay [1] is greater than 256 µg/mL; in assay [2] it was 32 µg/mL; in assay [3], less than 1 µg/mL; in assay [4], 32 µg/mL; in assay [5] it was less than 1 µg/mL; in assay [6], 256 µg/mL. Further, the MIC in assay [7] and in assay [8] was 2 µg/mL throughout.
